Measured values as given in patent US20190072562A1, “SYSTEM AND METHOD FOR DETERMINATION OF LIGAND-TARGET BINDING BY MULTI-PHOTON FLUORESCENCE ANISOTROPY MICROSCOPY” (THE GENERAL HOSPITAL CORPORATION, priority 2014, published 2019).

Columns and labels:
PARP1 [1] = biological target: T1, PARP1 (Homo sapiens, UniProt P09874); assay: MFAM fluorescence anisotropy of free vs PARP1-bound AZD2281-BODIPY FL in solution; assay type: binding; conditions: PARP1 at 1.6x of 5 μM probe, imaging media with 2.5% FBS
T1 sequence (P09874 whole entry): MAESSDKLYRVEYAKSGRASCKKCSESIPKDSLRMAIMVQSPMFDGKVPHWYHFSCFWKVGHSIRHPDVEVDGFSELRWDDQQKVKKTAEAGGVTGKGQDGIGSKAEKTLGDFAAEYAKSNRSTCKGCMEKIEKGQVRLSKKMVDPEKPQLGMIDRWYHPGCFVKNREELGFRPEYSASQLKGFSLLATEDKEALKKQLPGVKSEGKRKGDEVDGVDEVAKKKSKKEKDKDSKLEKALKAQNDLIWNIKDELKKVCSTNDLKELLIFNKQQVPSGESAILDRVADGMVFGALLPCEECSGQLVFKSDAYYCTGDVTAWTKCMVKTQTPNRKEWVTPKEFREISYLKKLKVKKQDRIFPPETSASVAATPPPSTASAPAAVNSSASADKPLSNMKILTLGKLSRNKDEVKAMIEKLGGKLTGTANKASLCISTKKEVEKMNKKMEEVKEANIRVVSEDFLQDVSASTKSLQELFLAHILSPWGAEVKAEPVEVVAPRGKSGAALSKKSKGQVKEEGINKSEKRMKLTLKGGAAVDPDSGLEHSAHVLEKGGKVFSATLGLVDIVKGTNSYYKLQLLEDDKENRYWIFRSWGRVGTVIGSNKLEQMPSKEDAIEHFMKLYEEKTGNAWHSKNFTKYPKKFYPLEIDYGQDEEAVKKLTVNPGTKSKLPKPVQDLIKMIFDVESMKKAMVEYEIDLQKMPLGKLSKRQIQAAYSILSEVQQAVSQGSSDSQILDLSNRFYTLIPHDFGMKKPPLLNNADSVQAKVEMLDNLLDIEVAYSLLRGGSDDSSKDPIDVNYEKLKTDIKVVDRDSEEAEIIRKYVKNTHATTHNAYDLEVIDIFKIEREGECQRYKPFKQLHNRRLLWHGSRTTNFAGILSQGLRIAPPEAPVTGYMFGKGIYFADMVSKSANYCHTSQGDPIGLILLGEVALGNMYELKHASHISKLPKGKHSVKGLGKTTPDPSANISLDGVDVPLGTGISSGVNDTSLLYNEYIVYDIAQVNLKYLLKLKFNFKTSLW
Method: AZD2281 labeled with BODIPY FL (AZD2281-BODIPY FL) was prepared as previously described (see Thurber, G. M. et al., Single-cell and subcellular pharmacokinetic imaging allows insight into drug action in vivo, Nat Commun, 4, 1504, (2013), for example). PARP1 (BioVision) was brought up in the manufactures recommended solution and added at 1.6× the concentration of AZD2281-BODIPY FL (5 μM) in imaging media containing 2.5% FBS. Free AZD2281-BODIPY FL (5 μM) (no PARP) in the same imaging media with 2.5% FBS and in DMSO solutions were also made. Images were taken of drops of solution between cover glass.
(§1) Images were analyzed in Matlab (Mathworks) and ImageJ. All anisotropy measurements were calculated from the equation r=(I∥−I⊥)/(I∥+2I⊥). The detector noise of the two photodetectors was subtracted from the whole images before the data were processed. Fluorescence images represent the denominator of the anisotropy equation, which represents the entire fluorescence from the sample. Anisotropy values were obtained by defining a region of interest and measuring the average anisotropy within that region. Regions were extended to fluorescent images to calculate the corresponding intensity. […]

PARP [2] = biological target: T2, PARP (Homo sapiens, UniProt P09874); assay: In vitro cellular MFAM imaging of drug target engagement in live cells; assay type: cell-based
T2 construct: endogenous in cells; host or cells: HT1080
T2 sequence (P09874 2-1014): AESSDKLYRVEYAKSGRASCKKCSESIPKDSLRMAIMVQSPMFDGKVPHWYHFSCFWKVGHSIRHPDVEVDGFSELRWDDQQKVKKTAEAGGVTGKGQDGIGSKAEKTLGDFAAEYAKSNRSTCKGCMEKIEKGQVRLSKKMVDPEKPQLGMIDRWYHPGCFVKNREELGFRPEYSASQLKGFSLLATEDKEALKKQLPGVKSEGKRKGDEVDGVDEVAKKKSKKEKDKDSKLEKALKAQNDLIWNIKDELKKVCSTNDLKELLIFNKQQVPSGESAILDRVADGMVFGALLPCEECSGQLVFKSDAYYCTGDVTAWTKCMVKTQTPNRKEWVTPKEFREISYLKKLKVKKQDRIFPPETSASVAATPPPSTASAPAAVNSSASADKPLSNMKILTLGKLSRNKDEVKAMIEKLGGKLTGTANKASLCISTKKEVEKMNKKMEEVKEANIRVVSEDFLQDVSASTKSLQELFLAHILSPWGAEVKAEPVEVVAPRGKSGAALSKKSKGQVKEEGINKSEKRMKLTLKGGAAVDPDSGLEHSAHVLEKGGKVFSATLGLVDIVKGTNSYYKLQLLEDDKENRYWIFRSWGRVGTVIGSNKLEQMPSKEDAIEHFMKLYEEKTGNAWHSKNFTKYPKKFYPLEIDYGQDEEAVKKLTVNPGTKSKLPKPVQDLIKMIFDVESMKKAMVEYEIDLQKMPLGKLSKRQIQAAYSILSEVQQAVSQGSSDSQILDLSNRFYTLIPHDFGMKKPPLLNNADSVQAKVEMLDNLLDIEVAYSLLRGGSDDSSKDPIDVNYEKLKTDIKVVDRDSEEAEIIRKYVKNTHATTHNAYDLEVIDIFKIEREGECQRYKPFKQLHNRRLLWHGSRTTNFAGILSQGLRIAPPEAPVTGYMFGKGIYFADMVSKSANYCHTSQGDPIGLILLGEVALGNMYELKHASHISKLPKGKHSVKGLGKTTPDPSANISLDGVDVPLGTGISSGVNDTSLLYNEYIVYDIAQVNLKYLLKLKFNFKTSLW
Method: HT1080 cells (ATCC) stably expressing H2B mApple fluorescent protein were cultured in DMEM with 10% FBS, 1% pen-strep and 100 μg/ml geneticin (Invitrogen). HT1080 cells were cultured in DMEM with 10% FBS and 1% pen-strep. […] Cells were plated onto 25 mm #1 cover glass for in vitro imaging.
Cells on 25 mm cover glass were mounted into a closed bath perfusion chamber (Warner Instruments) and perfused with a custom perfusion system that enabled solution switching in the imaging chamber. Cells were imaged in phenol red-free DMEM with 10% FBS and 1% pen-strep. AZD2281-BODIPY FL (1 μM) was perfused into the imaging chamber followed by a washout with drug free media. Images were obtained during the entire time interval at regular time points. For competition experiments, free AZD2281 (5 μM) (Selleck Chemicals) was added to the incubating solution before during and after AZD2281-BODIPY FL addition. Me5-BODIPY was used for fluorophore control experiments.
as §1

PARP [3] = assay: In vivo MFAM imaging of drug target engagement in HT1080 tumor, mouse dorsal skinfold window chamber
Method: All animal experiments were performed in accordance with the Institutional Animal Care and Use Committee at Massachusetts General Hospital. Female 20-weeks old nude mice (Cox-7, Massachusetts General Hospital) were used. All surgical procedures were conducted under sterile conditions and facilitated through the use of a zoom stereomicroscope (Olympus SZ61). During all surgical procedures and imaging experiments mice were anesthetized by isofluorane vaporization (Harvard Apparatus) at a flow rate of […]: 2 L/minute oxygen. The body temperature of the mice was kept constant at 37° C. during all imaging experiments and surgical procedures. Dorsal skinfold window chambers (DSC) were implanted one day prior to imaging following a well-established protocol. Briefly, the two layers of skin on the back of the mouse were stretched and kept in place by the DSC. One skin layer was surgically removed and replaced by a 12-mm diameter glass cover slip positioned on one side of the DSC allowing for convenient access and imaging of the tumor area. A spacer located on the DSC prevented excessive compression of both tissue and vessel guaranteeing good vascularperfusion within the tumor region.
HT1080 H2B mApple cells were harvested by trypsinization (0.25% trypsin:EDTA) and resuspended in PBS. […]

PARP1 [4] = biological target: T1, PARP1; assay: FLIM fluorescence lifetime upon binding to PARP1 in vitro
Method: Fluorescence lifetime imaging was performed using a Zeiss 710 confocal NLO laser scanning system on an upright Zeiss Examiner stand with a 40×NA 1.1 water immersion LD CApochromat objective and a Becker & Hickl TCSPC system. Two-photon excitation was achieved using a Coherent Chameleon Vision II tunable laser (680-1040 nm) that provided 140-femtosecond pulses at a 80-Mhz repetition rate with an output power of 3 W at the peak of the tuning curve (800 nm). Laser scanning was controlled by Zeiss Zen software and set to a pixel dwell time of 1.58 microseconds and 0.9-sec frame rate at 910 nm wavelength excitation.
Enhanced detection of the scattered component of the emitted (fluorescence) photons was afforded by the use of a Becker & Hickl HPM-100-40 hybrid detector, which incorporates the Hamamatsu R10467 hybrid PMT tube Imaging was performed in the dark with blackout enclosure around the microscope to exclude external sources of light during the sensitive period of FLIM measurement. Emitted fluorescence was deflected to the non-descanned light path via a 760+ mirror and emission range was limited to 500-550 nm by a Chroma filter in front of the HPM-100-40 detector. […]
where r0 is the fundamental anisotropy of the dye-dependent on the orientation of the excitation and emission dipole moments. […] The fluorescent microspheres (100% and 30%) had the same fluorescence lifetime, 3.6±0.3 nsec. […]

NeutrAvidin = biological target: T3, NeutrAvidin (Gallus gallus, UniProt P02701); assay: Biotin-BODIPY and NeutrAvidin binding by MFAM anisotropy; conditions: 10x unlabeled biotin (100 μM)
T3 construct: purchased Thermo Scientific
T3 sequence (P02701 25-152): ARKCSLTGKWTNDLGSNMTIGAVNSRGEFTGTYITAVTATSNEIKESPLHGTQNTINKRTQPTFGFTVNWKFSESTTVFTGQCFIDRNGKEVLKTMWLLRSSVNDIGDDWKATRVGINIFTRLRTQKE
Method: Biotin was conjugated to Me5-BODIPY (Biotin-BODIPY) and brought to 1 mM stock solution in DMSO. Biotin-BODIPY (10 μM) was mixed with varying concentrations of NeutrAvidin (Thermo Scientific) in PBS with 1% Triton X (Sigma). Each sample was imaged in triplicate as a drop between a microscope slide and cover glass. Measurements of each sample were also performed using single photon excitation in a plate reader. Measurements were also made in the presence of 100 μM free Biotin to competitively compete with the Biotin-BODIPY.

## Cc1cc(C)n2c1C=C1C=CC(CCC(=O)N3CCN(C(=O)c4cc(Cc5n[nH]c(=O)c6ccccc56)ccc4F)CC3)=[N+]1[B-]2(F)F [AZD2281-BODIPY FL]
PARP1 [1]
  anisotropy of target-bound over free or intracellular drug: significant increase in anisotropy
PARP [2]; HT1080 cells incubated with probe
  localisation of bound drug (high anisotropy): bound drug was present in the nucleus
PARP [2]; HT1080 cells, after washing
  bound drug after extended washing cycles: the nuclear, bound drug remains
PARP [2]; HT1080 cells, loading and washing
  target binding in the cytoplasm: no target binding
PARP [3]; after intravenous infusion vs 34 minutes later
  nuclear anisotropy over time in vivo: the nuclear anisotropy increased
PARP [3]; intravenous, implanted HT1080 H2B mApple tumor
  binding to PARP in the nucleus in vivo: occurred immediately upon drug infusion
PARP1 [4]; bound to PARP1
  fluorescence lifetime: 3.3±0.3 nsec
PARP1 [4]; unbound
  fluorescence lifetime: 4.1±0.3 nsec

## O=C(O)CCCC[C@@H]1SC[C@@H]2NC(=O)N[C@@H]21 [biotin]
NeutrAvidin
  anisotropy increase of Biotin-BODIPY in presence of unlabeled competitor: suppressed
